Assay results reported in article PMC4646457 (PLoS ONE, 2015).
Values after ≈ are worked out from the molar mass of the structure shown. Where two headings read alike, the source gives them in different places.

Assays:
[1] = set-up: method as in EGF10027 protocol, CIB RM2000/00481/06; details: mice, rats and dogs; ref EGF10027 protocol, CIB RM2000/00481/06; cited from earlier work
HER2 [2] = details: read-out: IC50 for HER2; stated as target binding affinity, ref not given; cited from earlier work
[3] = cited from earlier work
EGFR = details: read-out: IC50 for EGFR; stated as target binding affinity, ref not given; cited from earlier work
[4] = rats; ref EGF10027 protocol, CIB RM2000/00481/06; cited from earlier work
[5] = test system: isolated canine cardiac Purkinje fibers; set-up: method as in EGF10027 protocol, CIB RM2000/00481/06; details: ref EGF10027 protocol, CIB RM2000/00481/06; cited from earlier work
CYP3A = test system: CYP3A; set-up: method as in EGF10027 protocol, CIB RM2000/00481/06; details: pregnane X receptor-screening assay; ref EGF10027 protocol, CIB RM2000/00481/06; cited from earlier work
[6] = cited from earlier work; for frequency of achieving ≥75% inhibition of one of four key biomarkers (p-EGFR, p-ErbB2, p-ERK1/2, p-AKT): tumor
[7] = test system: HER2+ human breast cancer cell lines; set-up: method as in PMID 12467226; details: in vitro proliferative growth, cited from earlier work
ErbB2 tyrosine kinase = details: read-out: IC50, ErbB2 tyrosine kinase; in vitro kinase assay; ref EGF10027 protocol, CIB RM2000/00481/06; cited from earlier work
[8] = ref EGF10027 protocol, CIB RM2000/00481/06, cited from earlier work
HER2 [9] = target: HER2 (Homo sapiens, UniProt P04626); test: Quantitative IHC of phosphorylated HER2 in patient tumor (EGF10027); format: in vivo; details: for p-HER2 post-treatment OD: plasma […]
HER2, sequence (P04626 23-1255): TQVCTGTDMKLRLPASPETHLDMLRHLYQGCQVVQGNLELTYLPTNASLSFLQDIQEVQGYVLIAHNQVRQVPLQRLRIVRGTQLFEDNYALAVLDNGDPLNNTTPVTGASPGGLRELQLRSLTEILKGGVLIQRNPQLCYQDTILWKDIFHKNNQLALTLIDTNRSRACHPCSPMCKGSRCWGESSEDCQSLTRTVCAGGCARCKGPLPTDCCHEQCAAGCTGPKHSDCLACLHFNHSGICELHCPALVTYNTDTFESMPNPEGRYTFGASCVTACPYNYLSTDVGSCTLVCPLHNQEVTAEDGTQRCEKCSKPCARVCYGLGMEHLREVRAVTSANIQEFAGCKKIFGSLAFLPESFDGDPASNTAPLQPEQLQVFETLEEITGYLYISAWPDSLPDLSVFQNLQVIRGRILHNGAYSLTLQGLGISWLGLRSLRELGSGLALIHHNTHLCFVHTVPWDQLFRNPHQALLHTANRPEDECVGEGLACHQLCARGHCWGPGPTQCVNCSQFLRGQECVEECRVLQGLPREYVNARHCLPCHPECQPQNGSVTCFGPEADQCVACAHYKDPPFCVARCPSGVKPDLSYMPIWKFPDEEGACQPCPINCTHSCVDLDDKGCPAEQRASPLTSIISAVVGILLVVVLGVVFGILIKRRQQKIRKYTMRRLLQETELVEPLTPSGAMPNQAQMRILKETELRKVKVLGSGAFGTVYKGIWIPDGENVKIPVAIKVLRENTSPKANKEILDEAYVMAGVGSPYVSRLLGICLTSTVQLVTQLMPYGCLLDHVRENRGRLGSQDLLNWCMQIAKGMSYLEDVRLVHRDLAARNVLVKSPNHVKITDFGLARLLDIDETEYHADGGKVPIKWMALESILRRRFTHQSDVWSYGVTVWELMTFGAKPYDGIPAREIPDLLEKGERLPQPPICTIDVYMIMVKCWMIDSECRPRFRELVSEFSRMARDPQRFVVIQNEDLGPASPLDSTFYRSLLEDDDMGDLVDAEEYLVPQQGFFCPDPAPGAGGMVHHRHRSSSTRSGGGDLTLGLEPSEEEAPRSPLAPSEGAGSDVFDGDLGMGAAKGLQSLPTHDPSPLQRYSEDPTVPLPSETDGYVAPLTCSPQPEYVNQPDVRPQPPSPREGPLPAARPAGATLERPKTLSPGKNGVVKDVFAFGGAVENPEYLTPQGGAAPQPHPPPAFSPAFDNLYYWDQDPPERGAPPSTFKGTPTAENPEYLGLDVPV

plasma albumin = test system: plasma albumin; set-up: method as in printed; details: ref not given; cited from earlier work
[10] = set-up: method as in study EGF10003; details: ref study EGF10003, cited from earlier work
[11] = set-up: method as in EGF10027 protocol, CIB RM2000/00481/06; details: Ames, CHO and human lymphocyte chromosome aberration, in vivo rat bone marrow; ref EGF10027 protocol, CIB RM2000/00481/06; cited from earlier work
[12] = set-up: method as in study EGF10002; details: ref study EGF10002, cited from earlier work
[13] = set-up: method as in EGF10027 protocol, CIB RM2000/00481/06; details: pregnant rats or rabbits, period of major organogenesis; ref EGF10027 protocol, CIB RM2000/00481/06; cited from earlier work
[14] = mice; ref EGF10027 protocol, CIB RM2000/00481/06; cited from earlier work
[15] = EGF10027 steady-state lapatinib concentrations in patient plasma and tumor; format: in vivo, human; details: for concentration at 12 h / concentration at 24 h: female, human, oral; for concentration at 12 h: 500 mg
CYP3A4 = test system: CYP3A4; set-up: method as in EGF10027 protocol, CIB RM2000/00481/06; details: ref EGF10027 protocol, CIB RM2000/00481/06; cited from earlier work
[16] = set-up: method as in RM2005/00018/00 (Study EGF20008); details: single agent, heavily pre-treated population; ref RM2005/00018/00 (Study EGF20008); cited from earlier work
human CYP450 enzymes = details: also CYP3A5, lesser extent CYP2C19; ref EGF10027 protocol, CIB RM2000/00481/06; cited from earlier work
[17] = set-up: method as in EGF10027 protocol, CIB RM2000/00481/06; details: ref EGF10027 protocol, CIB RM2000/00481/06, cited from earlier work
[18] = cancer patients, once daily dosing up to 1800 mg, preliminary

## CS(=O)(=O)CCNCc1ccc(-c2ccc3ncnc(Nc4ccc(OCc5cccc(F)c5)c(Cl)c4)c3c2)o1 [lapatinib]
[1]
  urinary excretion of the oral dose: […]
HER2 [2]
  IC50: […]
[3]; patients, doses up to 1800 mg QD, ref EGF10027 protocol
  fluctuation between peak and trough plasma concentrations at steady state: […]
[3]; previous clinical studies, 1500 mg QD
  Cmin: […]
[3]; ref EGF10027 protocol, original text
  plasma half-life: […]
EGFR
  IC50: […]
[4]
  single intravenous dose with no deaths: ≤ 21 mg/kg
[5]
  concentration not altering action potential parameters: […]
CYP3A
  CYP3A induction: no abil it y to induce CYP3A
[6]; cancer patients, preliminary, ref study EGF10004
  incidence of rash: […]
[6]; patients, ref preliminary analysis of EGF10004
  maximum tolerated dose (not reached at maximum dose given): […]
[6]; 500 mg once daily, ref study EGF10004, listed as GW572016
  frequency of achieving ≥75% inhibition of one of four key biomarkers (p-EGFR, p-ErbB2, p-ERK1/2, p-AKT): […]
[6]; 650 mg once daily, ref study EGF10004, listed as GW572016
  frequency of achieving ≥75% inhibition of one of four key biomarkers (p-EGFR, p-ErbB2, p-ERK1/2, p-AKT): […]
[6]; 900 mg once daily, ref study EGF10004, listed as GW572016
  frequency of achieving ≥75% inhibition of one of four key biomarkers (p-EGFR, p-ErbB2, p-ERK1/2, p-AKT): 44%
[6]; 1200 mg once daily, ref study EGF10004
  frequency of achieving ≥75% inhibition of one of four key biomarkers (p-EGFR, p-ErbB2, p-ERK1/2, p-AKT): […]
[6]; 1600 mg once daily, ref study EGF10004, listed as GW572016
  frequency of achieving ≥75% inhibition of one of four key biomarkers (p-EGFR, p-ErbB2, p-ERK1/2, p-AKT): […]
[7]
  IC90 in multiple HER2+ human breast cancer cell lines: […]
[7]; read-out: IC90 in multiple HER2+ human breast cancer cell lines
  IC90: ~900 nM
ErbB2 tyrosine kinase
  IC50: 9 nM
[8]; female rats
  NOAEL: […]
[8]; male rats
  NOAEL: […]
[8]; rats, up to 13 weeks
  generally well tolerated dose: […]
HER2 [9]; mean of listed subjects
  p-HER2 post-treatment OD, mean: 9.00 OD
HER2 [9]; one patient with ABCB1 SNP C3435T, plasma 1 μM, tumor 9 μM
  HER2 phosphorylation in tumor: complete inhibition
HER2 [9]; subject 5, tumor 25.60 µM
  p-HER2 post-treatment OD: […]
HER2 [9]; subject 1405, tumor 12.76 µM
  p-HER2 post-treatment OD: […]
Plasma albumin
  binding to plasma albumin: > 99%
[10]; 900 mg BID
  subjects with dose-limiting toxicity (diarrhea): […]
[10]; [18]
  incidence of diarrhea: […]
  incidence of nausea: […]
  incidence of rash: […]
[10]; patients receiving twice daily dosing (900 or 750 mg)
  incidence of gastrointestinal intolerance (nausea, vomiting and diarrhea): […]
[10]; patients
  AUC with 900 mg BID compared with 1800 mg once daily, higher: ~ two-fol d
[11]
  mutagenicity and clastogenicity: non-mutagenic
[12]; 100 and 175 mg doses
  accumulation with once daily dosing: […]
[12]; Day 1
  half-life: […]
[13]
  fetal malformations: No fetal malform ations
[14]
  single intravenous dose with no deaths: up to 46 mg/kg
[15]; plasma, patients, median (range), 500 mg BID (n = 5), steady state, read-out: Plasma Cmin
  concentration at 12 h: 2750 nM
[15]; plasma, 1000 mg, patients, median (range), 1000 mg QD (n = 5), steady state, read-out: Plasma Cmin
  concentration at 24 h: 1540 nM
[15]; plasma, 1500 mg, patients, median (range), 1500 mg QD (n = 3), steady state, read-out: Plasma Cmin
  concentration at 24 h: […]
[15]; tumor, patients, median (range), 500 mg BID (n = 5), steady state, read-out: Tumor Cmin
  concentration at 12 h: […]
[15]; tumor, 1000 mg, patients, median (range), 1000 mg QD (n = 5), steady state, read-out: Tumor Cmin
  concentration at 24 h: 2290 nM
[15]; tumor, 1500 mg, patients, median (range), 1500 mg QD (n = 3), steady state, read-out: Tumor Cmin
  concentration at 24 h: 2270 nM
[15]; patients, median (range), 500 mg BID (n = 5), steady state
  Tumor Cmin: […]
[15]; subject 5
  Lap conc, tumor: 25.60 µM
[15]; subject 124
  Lap conc, tumor: 56.02 µM
[15]; subject 801
  Lap conc, tumor: 1.98 µM
[15]; subject 803
  Lap conc, tumor: 2.08 µM
[15]; subject 804
  Lap conc, tumor: […]
[15]; subject 1401
  Lap conc, tumor: 1.02 µM
[15]; subject 1403
  Lap conc, tumor: 9.08 µM
[15]; subject 1405
  Lap conc, tumor: […]
CYP3A4
  CYP3A4 inhibition: inhibitory pot ential towards CYP3A4
[16]
  clinical benefit response rate: […]
Human CYP450 enzymes
  metabolizing CYP enzymes: metabolized predominantl y by CYP3A4
[17]; bile duct cannulated male rats, within 5 hours after dosing
  dose recovered in bile: 32%
[17]; oral, male Wistar Han rats
  overall recovery of radioactivity (nearly quantitative in feces): 90.0%
